From paper PMC8881512 (Nature Communications, 2022)
“And” between values parts separate entries of the source, which are not always exact repeats. Equal entries are not always repeated.

Key:
MCF-7 cells [1] = assay: Cell proliferation by cell counting, MCF-7; assay type: cell-based, human; settings: for Fold change of cell proliferation: 4OHT (0.5 μM), Fig.6f; for Cell proliferation (cell counting): 1 μM Entinostat for 4 days, Fig.1p
Experimental: Cell proliferation rates were determined by automated cell counter. In brief, cells were plated at density of 0.1 million cells per well in six-well plate. Cell numbers were counted by the indicated time point as stated in the figure legends.

MCF-7 cells [2] = assay: Colony-formation assay, MCF-7 (wild-type and ESR1 knock-in); assay type: cell-based, human; settings: for Relative colony formation: 1 μM 4OHT, 0.2 μM Fulvestrant, 2 μM VT02956, 2 μM VT02484, Fig.6g
Experimental: […] The drugs were refreshed every 2–4 days. The colonies were then fixed with 4% paraformaldehyde for 15 min and stained with 0.1% crystal violet in 20% methanol solution for quantification.

T47D cells = assay: Colony-formation assay, T47D (wild-type and ESR1 knock-in); assay type: cell-based; settings: 1 μM 4OHT, 0.2 μM Fulvestrant, 2 μM VT02956, 2 μM VT02484, 14 days, Fig.6h
Experimental: For colony formation, cells were plated into 12-well plate with a constant density at the start date of treatment in triplicate with the indicated compounds and further cultured for 10 days (MCF-7) or 14 days (T47D). The drugs were refreshed every 2–4 days. The colonies were then fixed with 4% paraformaldehyde for 15 min and stained with 0.1% crystal violet in 20% methanol solution for quantification.

[3] = system: YAP/TAZ target, ESR1 and ERα target gene mRNA in BTO-02; assay: qPCR gene expression in breast tumour organoids BTO-02; assay type: cell-based, human; settings: BTO-02 starved for E2 for 3 days, then 100 nM E2 for 2 hours; Fig.s6o;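 further: relative mRNA abundance computed by the ΔCt approach from SYBR-based real-time qPCR, with GAPDH as internal housekeeping reference for normalisation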
[4] = system: VGLL3, ESR1, YAP/TAZ target and ERα target gene mRNA in MCF-7 cells; assay: qPCR gene expression in MCF-7 cells; settings: 1 μM Entinostat for 24 h, Fig.1o;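 further: SYBR Green real-time PCR, mRNA abundance computed by the ΔCt approach with GAPDH transcript as the internal normalisation control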
[5] = system: ER+ breast tumour organoids (BTO-02); assay: 3D organoids drug response assay (CellTiter-Glo 3D); assay type: cell-based, human; settings: BTO-02; 12 days treatment with 0.2 µM Fulvestrant or 1 µM Tamoxifen; Fig.s6p
Experimental: Breast tumour organoids were dissociated into single cells using TrypLE Express and counted with automated cell counter. Subsequently, 1000 cells were mixed in 10 μl BME type 2, seeded onto 96-well plate in triplicate and overlaid with 100 μl BC organoid medium (BOM) after BME gelation. Three days after organoids sphere formation, medium was removed and replaced by 100 μl of complete medium containing VT02956 (0, 0.04, 0.2, 1, 5 μM) or vehicle (DMSO). The drug-containing medium was refreshed every 3 days for additional 3–4 times. At the end of the treatment, the effect of the drugs on the tumour organoids, in terms of the organoids cell growth, was assayed with CellTiter-Glo 3D (Promega) according to the manufacturer’s instructions and were normalised to vehicle controls (0.5% DMSO content). The IC50 values was calculated in GraphPad Prism 8.

[6] = system: contact between ESR1 promoter and super enhancer locus; assay: 3C library targeted bait qPCR (3C-qPCR); assay type: cell-based, human; settings: MCF-7 LATS1/2 dKO + 1 µM VT107 for 2 days; relative to Parental; Fig.s5f
Experimental: The 3C templates were generated by combining the protocols of 3C[40] with in-situ Hi-C[41]. Briefly, 10 million cells were collected, and the cell pellet was resuspended in DPBS with formaldehyde added at a final concentration of 1% at room temperature for 10 min. […] The nuclei were further washed once by in-situ lysis buffer and resuspended in 50 μl 0.5% SDS solution at 62 °C for exactly 10 min. The SDS was then neutralised by adding 145 μl H2O and 25 μl 10% Triton X-100 at 37 °C for 15 min. After adding 100 U DpnII (NEB, #R0543) with the presence of 1x NBEuffer 3.1, the restriction enzyme digestion was conducted in a thermomixer overnight at 37 °C. The restriction enzyme was then heat inactivated by incubating at 65 °C for 20 minutes. Then the digested chromatin was re-ligated by adding 900 μl Ligation Master Mix (1.3x NEB T4 Ligase Buffer, 1.1% X-100, 0.05% BSA and 2 U/μl T4 ligase) and incubated overnight at 16 °C with constant rotation. […] The 3C DNA was then purified with phenol-chloroform, precipitated and washed in 70% ethanol, and resuspend in Elution Buffer (1 mM Tris-HCl pH 8.0, 0.1 mM EDTA) and quantified with Nanodrop. […] Library concentration was measured with Qubit sdDNA HS Assay Kit and further qualified with Tapestation. […] After sequencing quality control with FastQC and trimming of adaptor sequence with Trim Galore, reads were processed in accordance with the Umi4C pipeline.

[7] = system: ERα, YAP/TAZ phosphorylation in MCF-7 cells; assay: Immunoblot analysis, MCF-7 cells; assay type: cell-based, human; settings: WT or LATS1/2 dKO MCF-7; 1 µM of VT-107 for 2 days; Supplementary Fig. 4k
TEAD-VGLL3-NCOR2 complex = target: T1, TEAD-VGLL3-NCOR2 complex (Homo sapiens, UniProt Q15562); assay: TEAD2 co-immunoprecipitation with NCOR2 / VGLL3; assay type: cell-based; settings: MCF7 transfected cells; Fig. 2n
T1 construct: expressed in transfected cells; host or cells: MCF-7
Experimental: For immunoprecipitations, cells were rinsed with ice-cold DPBS and then lysed in mild lysis buffer (150 mM NaCl, 50 mM Tris-Cl pH7.5, 0.5% Triton X-100) with protease inhibitors (Roche, #11873580001) and phosphatase inhibitors (Thermo Scientific, #88667) on ice for 30 min and centrifuged at 12,000 rpm for 10 min. Primary antibodies and Protein A/G magnetic beads (Pierce, #88803) were added to the supernatants and incubated with rotation for 3 h at 4 °C. Immunoprecipitants were washed four times with lysis buffer and were denatured by SDS-PAGE sample buffer and boiled for 5 min.

T1 sequence (Q15562 whole entry, one chain of several): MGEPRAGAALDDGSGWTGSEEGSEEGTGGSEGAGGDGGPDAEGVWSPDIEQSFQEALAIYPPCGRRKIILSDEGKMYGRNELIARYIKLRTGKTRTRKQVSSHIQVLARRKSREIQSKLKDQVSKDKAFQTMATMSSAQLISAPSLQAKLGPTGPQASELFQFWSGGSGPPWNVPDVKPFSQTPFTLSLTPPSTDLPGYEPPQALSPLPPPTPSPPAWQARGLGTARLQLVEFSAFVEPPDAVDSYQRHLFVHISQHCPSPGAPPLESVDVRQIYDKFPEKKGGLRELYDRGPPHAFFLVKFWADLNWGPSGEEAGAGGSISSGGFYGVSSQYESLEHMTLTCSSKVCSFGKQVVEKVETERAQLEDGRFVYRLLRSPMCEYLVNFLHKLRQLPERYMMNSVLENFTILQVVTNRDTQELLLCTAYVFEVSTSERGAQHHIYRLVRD

Compound: CC/C(=C(\c1ccc(O)cc1)c1ccc(OCCN(C)C)cc1)c1ccccc1 [4OHT, 4-Hydroxytamoxifen, reference compound]
- Fold change of cell proliferation (MCF-7 cells [1]; MCF-7 ERα-Y537S knock-in + ctrl): 1.082 and 1.041 and 1.122
- Fold change of cell proliferation (MCF-7 cells [1]; MCF-7 ERα-Y537S knock-in + sgLATS1/2): 0.2796 and 0.349 and 0.2955
- Fold change of cell proliferation (MCF-7 cells [1]; MCF-7 wt + ctrl): 0.5306 and 0.5714 and 0.5918
- Fold change of cell proliferation (MCF-7 cells [1]; MCF-7 wt + sgLATS1/2): 0.2041 and 0.1918 and 0.1796
- Relative colony formation (MCF-7 cells [2]; MCF-7 ERa D538G knock-in): 0.71 and 0.61 and 0.66
- Relative colony formation (MCF-7 cells [2]; MCF-7 ERa Y537S knock-in): 0.79 and 0.83 and 0.77
- Relative colony formation (MCF-7 cells [2]; MCF-7 WT): 0.38 and 0.41 and 0.34
- Relative colony formation (T47D cells; T47D ERa Y537S knock-in): 0.79 and 0.83 and 0.77
- Relative colony formation (T47D cells; T47D WT): 0.41 and 0.38 and 0.44

Compound: C[C@]12CC[C@@H]3c4ccc(O)cc4CC[C@H]3[C@@H]1CC[C@@H]2O [E2, 17β-estradiol, reference compound]
- GREB1 Rel. expression (BTO-02) [3]: 4.976 and 4.601 and 4.355
- TFF1 Rel. expression (BTO-02) [3]: 6.504 and 6.591 and 6.279

Compound: Nc1ccccc1NC(=O)c1ccc(CNC(=O)OCc2cccnc2)cc1 [Entinostat, reference compound]
- Cell proliferation (cell counting) (MCF-7 cells [1]; VGLL3 KO MCF-7): 10.42 and 9.55 and 11.21
- Cell proliferation (cell counting) (MCF-7 cells [1]; Wild-type MCF-7): 4.59 and 3.87 and 4.88
- ESR1 expression (qPCR) ([4]; VGLL3 KO MCF-7): 0.5015 and 0.486 and 0.4463
- ESR1 expression (qPCR) ([4]; Wild-type MCF-7): 0.07832 and 0.08939 and 0.1138

Compound: C[C@]12CC[C@@H]3c4ccc(O)cc4C[C@@H](CCCCCCCCC[S+]([O-])CCCC(F)(F)C(F)(F)F)[C@H]3[C@@H]1CC[C@@H]2O (stereo partly drawn) [Fulvestrant, reference compound]
- Relative colony formation (MCF-7 cells [2]; MCF-7 ERa D538G knock-in): 0.58 and 0.62 and 0.53
- Relative colony formation (MCF-7 cells [2]; MCF-7 ERa Y537S knock-in): 0.68 and 0.73 and 0.65
- Relative colony formation (MCF-7 cells [2]; MCF-7 WT): 0.31 and 0.26 and 0.32
- Relative colony formation (T47D cells; T47D ERa Y537S knock-in): 0.68 and 0.73 and 0.65
- Relative colony formation (T47D cells; T47D WT): 0.38 and 0.35 and 0.32
- Rel. growth (BTO-02, %) [5]: 43.197% and 36.224% and 48.81%

Compound: CC(=O)c1c(C)c2cnc(Nc3ccc(N4CCNCC4)cn3)nc2n(C2CCCC2)c1=O [Palbociclib, reference compound]
- MCF-7 growth, palbociclib combined with LATS1/2 depletion (MCF-7 cells [1]; LATS1/2 deficient MCF-7, Palbociclib 0.1 or 0.3 µM for 7 days, Supplementary Fig. 8i): dramatically reduced MCF-7 growth
- Rel. colony (colony-formation assay) (MCF-7 cells [2]; MCF-7, VT02956 (2 μM), VT02484 (2 μM) or Palbociclib (0.1 μM) alone or in combinations, Fig.6d): 0.58 and 0.54 and 0.51

Compound: CC/C(=C(\c1ccccc1)c1ccc(OCCN(C)C)cc1)c1ccccc1 [Tamoxifen]
- Rel. growth (BTO-02, %) [5]: 55.442% and 49.15% and 52.381%

Compound: VT-107
- Rel. Contact (3C-qPCR) between ESR1 promoter and super enhancer [6]: 0.5958 and 0.5632 and 0.5017
- ERα level (immunoblot) [7]: ameliorated the ERα downregulation caused by LATS1/2 dKO
- TEAD2 Co-IP with VGLL3 / NCOR2 (TEAD-VGLL3-NCOR2 complex): disrupted the interaction of TEAD with either VGLL3 or NCOR2
